Laboratory results: US9115169B2, “Method of treating tumors” (Lytix Biopharma AS, priority 2000, dated 2015)
≈ marks a conversion by molar mass, not a printed value. Where two headings read alike, the source gives them in different places. Where a SMILES comes first, the peptide text is derived from it. [ ]: non-standard residue; d: D form. The star is where a group is joined. Bip = N[C@@H](Cc1ccc(-c2ccccc2)cc1)C(=O)O; 2Nal = N[C@@H](Cc1ccc2ccccc2c1)C(=O)O; Cha = N[C@@H](CC1CCCCC1)C(=O)O; βNA = c1ccc2cc(N*)ccc2c1; OBn = c1ccc(CO*)cc1

Legend:
MRSA ATCC 33591 [1] = test system: MRSA ATCC 33591
[2] = test system: Escherichia coli ATCC 25922; details: ATCC 25922
[3] = test system: Escherichia coli ATCC 25922
MRSA ATCC 33591 [4] = test system: MRSA ATCC 33591; remark: listed apart in the source
[5] = test system: Staphylococcus aureus ATCC 25923
[6] = test system: Staphylococcus aureus ATCC 25923; details: ATCC 25923
MRSE ATCC 27626 [7] = test system: MRSE ATCC 27626
MRSE ATCC 27626 [8] = test system: MRSE ATCC 27626; remark: listed apart in the source

Structure (SMILES)	MIC E. coli ([3]; ATCC 25922)	MIC MRSA (MRSA ATCC 33591 [4]; ATCC 33591)	MIC S. aureus ([5]; ATCC 25923)	MIC MRSE (MRSE ATCC 27626 [8]; ATCC 27626)	MBC MRSA (MRSA ATCC 33591 [1])	MBC E. coli [2]	MBC S. aureus [6]	MBC MRSE (MRSE ATCC 27626 [7])	other results
N=C(N)NCCC[C@H](NC(=O)[C@H](Cc1ccc(O)cc1)NC(=O)[C@H](CCCNC(=N)N)NC(=O)[C@H](Cc1ccc2ccccc2c1)NC(=O)[C@@H](N)CCCNC(=N)N)C(=O)N[C@@H](Cc1ccc2ccccc2c1)C(N)=O [Arg-(2-Nal)-Arg-Tyr-Arg-(2-Nal)NH2] (H-R[2Nal]RYR[2Nal]-NH2; N-terminus assumed)	10 µg/mL (≈ 9.59 µM)	2.5 µg/mL (≈ 2.4 µM)	5 µg/mL (≈ 4.79 µM)	2.5 µg/mL (≈ 2.4 µM)	5 µg/mL (≈ 4.79 µM)	15 µg/mL (≈ 14.4 µM)	5 µg/mL (≈ 4.79 µM)	2.5 µg/mL (≈ 2.4 µM)	
N=C(N)NCCC[C@H](NC(=O)[C@@H](N)Cc1ccc(-c2ccccc2)cc1)C(=O)OCc1ccccc1 [BipR-OBzl] (H-[Bip]-Arg-OBn; N-terminus assumed)	150.0 µg/mL (≈ 308 µM)	5.0 µg/mL (≈ 10.3 µM)	5.0 µg/mL (≈ 10.3 µM)	5.0 µg/mL (≈ 10.3 µM)					MIC P. aerug. (P. aeruginosa): 100.0 mg/L (≈ 205 µM)
COC(=O)[C@H](CCCNC(=N)N)NC(=O)[C@@H](N)Cc1ccc(-c2ccccc2)cc1 [BipR-OMe] (H-[Bip]-Arg-OMe; N-terminus assumed)	>300.0 µg/mL	50.0 µg/mL (≈ 122 µM)	150.0 µg/mL (≈ 365 µM)	50.0 µg/mL (≈ 122 µM)					MIC P. aerug. (P. aeruginosa): >300.0 mg/L
N=C(N)NCCC[C@H](NC(=O)[C@@H](N)CC1CCCCC1)C(=O)OCc1ccccc1 [ChxAR-OBzl] (H-[Cha]-Arg-OBn; N-terminus assumed)	300.0 µg/mL (≈ 718 µM)	25 to 37.5 µg/mL	50 to 100 µg/mL	25.0 µg/mL (≈ 59.9 µM)					MIC P. aerug. (P. aeruginosa): >300.0 mg/L
N=C(N)NCCC[C@H](NC(=O)[C@@H](N)Cc1ccccc1)C(=O)OCc1ccccc1 [FR-Obzl] (H-Phe-Arg-OBn; N-terminus assumed)									MIC P. aerug. (P. aeruginosa): >300.0 mg/L
N=C(N)NCCC[C@H](NC(=O)[C@@H](N)Cc1ccccc1)C(=O)Nc1ccc2ccccc2c1 [FRβNA] (H-Phe-Arg-βNA)									Minimum inhibitory concentration P. aeruginosa (P. aeruginosa; Table 9): >300 mg/L; Minimum inhibitory concentration E. coli ([3]; Table 9): >150 mg/L; Minimum inhibitory concentration MRSA (MRSA ATCC 33591 [4]; Table 9): 12.5 mg/L (≈ 28 µM); Minimum inhibitory concentration S. aureus ([5]; Table 9): 5 mg/L (≈ 11.2 µM); Minimum inhibitory concentration MRSE (MRSE ATCC 27626 [8]; Table 9): 5 mg/L (≈ 11.2 µM)
NCCCC[C@H](N)C(=O)N[C@@H](Cc1c[nH]c2ccccc12)C(=O)OCc1ccccc1 [KW-Obzl] (H-Lys-Trp-OBn; N-terminus assumed)	>300 µg/mL	37.5 µg/mL (≈ 88.8 µM)	37.5 µg/mL (≈ 88.8 µM)	25 µg/mL (≈ 59.2 µM)					Minimum inhibitory concentration E. coli ([3]; ATCC 25922): >300 mg/L; Minimum inhibitory concentration MRSA (MRSA ATCC 33591 [4]; ATCC 33591): 37.5 mg/L (≈ 88.8 µM); Minimum inhibitory concentration S. aureus ([5]; ATCC 25923): 37.5 mg/L (≈ 88.8 µM); Minimum inhibitory concentration MRSE (MRSE ATCC 27626 [8]; ATCC 27626): 25 mg/L (≈ 59.2 µM)
NCCCC[C@H](N)C(=O)O[C@@H](Cc1c[nH]c2ccccc12)C(=O)OCc1ccccc1 [Kψ(COO)WOBzl]									Minimum inhibitory concentration P. aeruginosa (P. aeruginosa): 300 mg/L (≈ 708 µM); Minimum inhibitory concentration E. coli ([3]; ATCC 25922): 150 mg/L (≈ 354 µM); Minimum inhibitory concentration MRSA (MRSA ATCC 33591 [4]; ATCC 33591): 100 mg/L (≈ 236 µM); Minimum inhibitory concentration S. aureus ([5]; ATCC 25923): 50 mg/L (≈ 118 µM); Minimum inhibitory concentration MRSE (MRSE ATCC 27626 [8]; ATCC 27626): 37.5 mg/L (≈ 88.5 µM)
N=C(N)NCCC[C@H](N)C(=O)N[C@@H](Cc1c[nH]c2ccccc12)C(=O)OCc1ccccc1 [RW OBz] (H-Arg-Trp-OBn)	>200 (>200) μg/ml	25 µg/mL (≈ 55.5 µM)	50 (50) μg/ml	20 (20) μg/ml	50 µg/mL (≈ 111 µM)	>200 (>200) μg/ml	50 (50) μg/ml	20 (20) μg/ml	
COC(=O)[C@H](CCCNC(=N)N)NC(=O)[C@H](Cc1c[nH]c2ccccc12)NC(=O)[C@@H](N)CCCNC(=N)N [RWR-OMe, H-L-Arg-L-Trp-L-Arg-OMe] (H-Arg-Trp-Arg-OMe)					>200 (>200) μg/ml	>200 (>200) μg/ml	>200 (>200) μg/ml	200 µg/mL (≈ 377 µM)	
N=C(N)NCCC[C@H](N)C(=O)N[C@@H](Cc1c[nH]c2ccccc12)C(=O)Nc1ccc2ccccc2c1 [RWβNA] (H-Arg-Trp-βNA)									Minimum inhibitory concentration E. coli ([3]; Table 9): 100 mg/L (≈ 206 µM); Minimum inhibitory concentration MRSA (MRSA ATCC 33591 [4]; Table 9): 12.5 mg/L (≈ 25.7 µM); Minimum inhibitory concentration S. aureus ([5]; Table 9): 12.5 mg/L (≈ 25.7 µM); Minimum inhibitory concentration MRSE (MRSE ATCC 27626 [8]; Table 9): 12.5 mg/L (≈ 25.7 µM)
COC(=O)[C@H](CCCNC(=N)N)NC(=O)[C@@H](N)Cc1c[nH]c2ccccc12 [WR-OMe, H-L-Trp-L-Arg-OMe] (H-Trp-Arg-OMe)					>200 (>200) μg/ml	>200 (>200) μg/ml	>200 (>200) μg/ml	>200 (>200) μg/ml	
COC(=O)[C@H](CCCNC(=N)N)NC(=O)[C@H](Cc1c[nH]c2ccccc12)NC(=O)[C@@H](N)Cc1c[nH]c2ccccc12 [WWR-OMe, H-L-Trp-L-Trp-L-Arg-OMe] (H-Trp-Trp-Arg-OMe)					>200 (>200) μg/ml	>200 (>200) μg/ml	>200 (>200) μg/ml	>200 (>200) μg/ml	

Further lines, with some results ahead:

MIC E. coli ([3]; ATCC 25922)	MIC MRSA (MRSA ATCC 33591 [4]; ATCC 33591)	MIC S. aureus ([5]; ATCC 25923)	MIC MRSE (MRSE ATCC 27626 [8]; ATCC 27626)	Structure (SMILES)	MBC MRSA (MRSA ATCC 33591 [1])	MBC E. coli [2]	MBC S. aureus [6]	MBC MRSE (MRSE ATCC 27626 [7])	other results
>300.0 µg/mL	>300.0 µg/mL	>300.0 µg/mL	200.0 µg/mL (≈ 534 µM)	COC(=O)[C@H](Cc1c[nH]c2ccccc12)NC(=O)[C@@H](N)CCCNC(=N)N [RW-OMe] (H-Arg-Trp-OMe; N-terminus assumed)					
75 µg/mL (≈ 94.6 µM)	5 µg/mL (≈ 6.31 µM)	5 µg/mL (≈ 6.31 µM)	2.5 (2.5) μg/ml	N=C(N)NCCC[C@H](NC(=O)[C@H](Cc1c[nH]c2ccccc12)NC(=O)[C@@H](N)CCCNC(=N)N)C(=O)N[C@@H](Cc1c[nH]c2ccccc12)C(=O)OCc1ccccc1 [RWRW-OBzl, H-L-Arg-L-Trp-L-Arg-L-Trp-OBzl] (H-RWRW-OBn)	5 to 10 µg/mL	100 µg/mL (≈ 126 µM)	5 to 10 µg/mL	2.5 (2.5) μg/ml	
		75 µg/mL (≈ 105 µM)		COC(=O)[C@H](CCCNC(=N)N)NC(=O)[C@H](Cc1c[nH]c2ccccc12)NC(=O)[C@H](Cc1c[nH]c2ccccc12)NC(=O)[C@@H](N)CCCNC(=N)N [RWWR-OMe, H-L-Arg-L-Trp-L-Trp-L-Arg-OMe] (H-RWWR-OMe)	100 to 200 µg/mL	>200 (>200) μg/ml	100 to 200 µg/mL	20 (20) μg/ml	
75 µg/mL (≈ 94.6 µM)	2.5 to 5 µg/mL	5 (5) μg/ml	2.5 (2.5) μg/ml	N=C(N)NCCC[C@H](N)C(=O)N[C@@H](Cc1c[nH]c2ccccc12)C(=O)N[C@H](CCCNC(=N)N)C(=O)N[C@H](Cc1c[nH]c2ccccc12)C(=O)OCc1ccccc1 [RWrw-OBzl, H-L-Arg-L-Trp-D-Arg-D-Trp-OBzl] (H-RW[dR][dW]-OBn)	5 µg/mL (≈ 6.31 µM)	75 to 100 µg/mL	5 (5) μg/ml	2.5 (2.5) μg/ml	
>300 µg/mL	37.5 µg/mL (≈ 83.2 µM)	37.5 µg/mL (≈ 83.2 µM)	25 µg/mL (≈ 55.5 µM)	N=C(N)NCCC[C@H](N)C(=O)N[C@H](Cc1c[nH]c2ccccc12)C(=O)OCc1ccccc1 [Rw-OBzl] (H-Arg-[dW]-OBn; N-terminus assumed)					
	37.5 µg/mL (≈ 83.2 µM)		50.0 µg/mL (≈ 111 µM)	N=C(N)NCCC[C@H](NC(=O)[C@@H](N)Cc1c[nH]c2ccccc12)C(=O)OCc1ccccc1 [WR-OBzl] (H-Trp-Arg-OBn; N-terminus assumed)					MIC P. aerug. (P. aeruginosa): >300.0 mg/L
75 µg/mL (≈ 118 µM)	5 µg/mL (≈ 7.85 µM)	5 (5) μg/ml	5 (5) μg/ml	N=C(N)NCCC[C@H](NC(=O)[C@@H](N)Cc1c[nH]c2ccccc12)C(=O)N[C@@H](Cc1c[nH]c2ccccc12)C(=O)OCc1ccccc1 [WRW OBz] (H-Trp-Arg-Trp-OBn)	10 µg/mL (≈ 15.7 µM)	200 µg/mL (≈ 314 µM)	5 (5) μg/ml	5 (5) μg/ml	
>300 µg/mL	50 µg/mL (≈ 111 µM)	37.5 µg/mL (≈ 83.2 µM)	25 µg/mL (≈ 55.5 µM)	N=C(N)NCCC[C@@H](N)C(=O)N[C@@H](Cc1c[nH]c2ccccc12)C(=O)OCc1ccccc1 [rW-Obzl] (H-[dR]-Trp-OBn; N-terminus assumed)					
>200 (>200) μg/ml	50 µg/mL (≈ 111 µM)	50 µg/mL (≈ 111 µM)	20 µg/mL (≈ 44.4 µM)	N=C(N)NCCC[C@@H](N)C(=O)N[C@H](Cc1c[nH]c2ccccc12)C(=O)OCc1ccccc1 [rw OBz] (H-[dR]-[dW]-OBn)	75 µg/mL (≈ 166 µM)	>200 (>200) μg/ml	75 µg/mL (≈ 166 µM)	25 µg/mL (≈ 55.5 µM)	
75 µg/mL (≈ 118 µM)	20 (20) μg/ml	20 (20) μg/ml	10 (10) μg/ml	N=C(N)NCCC[C@H](NC(=O)[C@H](N)Cc1c[nH]c2ccccc12)C(=O)N[C@@H](Cc1c[nH]c2ccccc12)C(=O)OCc1ccccc1 [wRW OBz] (H-[dW]-Arg-Trp-OBn)	20 (20) μg/ml	100 µg/mL (≈ 157 µM)	20 (20) μg/ml	10 (10) μg/ml	
75 µg/mL (≈ 118 µM)	5 µg/mL (≈ 7.85 µM)	5 (5) μg/ml	5 (5) μg/ml	N=C(N)NCCC[C@@H](NC(=O)[C@H](N)Cc1c[nH]c2ccccc12)C(=O)N[C@H](Cc1c[nH]c2ccccc12)C(=O)OCc1ccccc1 [wrw OBz] (H-[dW]-[dR]-[dW]-OBn)	10 µg/mL (≈ 15.7 µM)	200 µg/mL (≈ 314 µM)	5 (5) μg/ml	5 (5) μg/ml	
